Experimental data taken from a melting point compilation (Tetko et al.; mined from patent text by program, amines drawn as free bases though some values may be those of a salt).

Compound	melting point
Cc1cccc(-c2nc(C)cc(-c3ccccc3Cl)n2)n1	90.8 °C
Cc1ccccc1Cc1cccnn1	88 to 89 °C
O=C(C=Cc1ccc(F)cc1)c1c(F)c(F)c(F)c(F)c1F	80 to 84 °C
Cc1ccc(C(=O)NC(NC(=S)Nc2cccnc2)C(F)(F)F)cc1 (stereo not given)	185 to 186 °C
C=C1SC(=O)N(c2ccc3cc(-c4cc5c(c(-c6cccnc6)c4)OCO5)ccc3c2)C1=O	298 to 300 °C
Cc1cscc1NC(=S)Nc1cc(C(F)(F)F)cc(Cl)c1N	> 310 °C
COc1ccc(-c2[nH]nc3c2C(=O)c2c(NC(=O)CN4CCCCC4)cccc2-3)cc1	291 °C
Nc1c2c(nc3ccccc13)CCS2	210 to 212 °C
CC(C)(C)OC(=O)C=Cc1ccc(-c2ccc3ncnc(Nc4ccc(OCc5cccc(F)c5)c(Cl)c4)c3c2)cc1	212 °C
C=CCOC(=O)C1=C2CCSC[C@@H]2[C@@H]2/C(=C\C)C(=O)N12	195 to 225 °C
COC(=O)c1c(Cl)cc(Cl)cc1NC(=O)C(C)c1ccccc1 (stereo not given)	83 to 84 °C
Cn1cc(-c2cccc(Br)c2)c(=O)c(-c2cccc(Br)c2)c1	216 °C
C=C(N=[N+]=[N-])c1cn(COCCO)c(=O)[nH]c1=O	141 to 142 °C
O=S(=O)(O)CCNCCO	180 to 183 °C
CC(Oc1ccc(Oc2ccc(C(F)(F)F)cc2)cc1)C(=O)N1CCCO1 (stereo not given)	105 to 107 °C
C#CC1(OC(C)=O)CCC2C3CC(=C)C4=CC(=O)CCC4(C)C3CCC21C (stereo not given)	158 to 160 °C
CCOC(=O)c1cnc2n(c1=O)C(C)CC=C2Nc1ccccc1 (stereo not given)	119 to 120 °C
CSC1CC(=O)N1CC(=O)CCCCCCCc1ccccc1 (stereo not given)	48 to 51 °C
CCOC(=O)CC1CCc2c(oc3ccc(Cl)cc23)C1 (stereo not given)	54 to 55.5 °C
COc1cc2cc(OS(=O)(=O)C(F)(F)F)cnc2cc1OC	82.5 to 84 °C
CCOC(=O)NNc1nc2ccc(-n3ccnc3)cc2n(OCc2ccccc2)c1=O	197 to 199 °C
Cc1cccc(-c2[nH]c(C(C)C)nc2-c2ccc(F)c(-c3ccc(S(C)=O)nc3)c2)n1 (stereo not given)	100 to 102 °C
CCN1c2ncc(/C=C/c3ccncc3)cc2C(=O)N(C)c2cccnc21	150 °C
CCCCC(=O)N(CCOCc1ccccc1)Cc1ccc(-c2ccccc2-c2nnn[nH]2)cc1	109 to 110 °C
Cc1nc2c3c(ccc2[nH]1)[C@H]1OCCO[C@@H]1[C@@H](c1ccccc1)O3	260 °C

Compound	melting point
CC12CCC3C(CC=C4CC(O)CCC43C)C1CC=C2Br (stereo not given)	162 to 164 °C
N#Cc1cncc(OC2SCC(O)C(O)C2O)c1 (stereo not given)	149 °C
CC(=O)NC1CCN(Cc2cnc3cc(NC(=O)c4ccc(-c5ccc(Cl)cc5)cc4)ccc3c2)C1 (stereo not given)	> 285 °C
CCOC(=O)c1cc(CC)sc1Nc1ccc(C(F)F)cc1[N+](=O)[O-]	88 to 90 °C
O=C(Nc1nc(C(F)(F)F)co1)C1c2ccc(F)cc2Oc2cc(F)ccc21	265 °C
Cc1c(C=Cc2ccccc2)cccc1[N+](=O)[O-]	75.9 °C
CCc1cn(C(CC)CC)c(=O)c(N2CCc3cc(Cl)cc(Cl)c32)n1	136 to 137 °C
CNC(=O)CC1CN=C(c2cc3cc(Oc4ccc(COC)nc4)cc(OC)c3[nH]2)S1 (stereo not given)	102 to 104 °C
Cc1nc2ccnn2c2c1CCN2C(C)(C)C	144 to 146 °C
O=C1c2ccccc2-n2cnc(C=NO)c2[C@@H]2CCCN12	285 °C
COc1cc(OC)nc(Sc2sccc2NS(=O)(=O)C(F)(F)F)n1	103 to 104 °C
CC(C)(C)OC(=O)N[C@H]1CC[C@H](CCN2CCN(c3nccc4c3OCC4)CC2)CC1	141 °C
Cc1ccc(N(C(=O)CCl)c2c(F)cc(F)cc2Cl)cc1	137 to 140 °C
CC(C)(Cc1cccc2ccccc12)NC=O	79 to 80 °C
C=CCN(CC=C)c1nc(NC(=O)Cc2cccs2)n2oc(=O)nc2n1	140 to 142 °C
CN(C)S(=O)(=O)c1cc2c(c(Cl)c1Cl)OC(C(=O)OCC(=O)OC(c1ccccc1)c1ccccc1)C2 (stereo not given)	56 to 58 °C
CC(C)OC(=O)CCC1CCCCC1(c1ccc(O)c(C(C)(C)C)c1)c1ccc(O)c(C(C)(C)C)c1 (stereo not given)	172 °C
Oc1ccc(-c2ccc(C=C(Br)Br)s2)cc1	99 to 101 °C
Fc1ccc2c(CCN=c3sc4ccccc4s3)c[nH]c2c1	193 °C
CCOC(=O)C1=C(C)NC(C)=C(C(=O)N[C@H](C(=O)OCC)C(C)C)[C@@H]1c1cccc([N+](=O)[O-])c1	135 to 136 °C
ON1C=CN(c2ccccc2)N1	284 to 285 °C
COc1ccc(Nc2ccc(C(=O)O)cc2)c2ccccc12	153 to 154 °C
Nc1cc2nc(O)c(O)nc2c2ccccc12	> 300 °C
COC(CN1CCN(c2cccc(-n3cnc4cc(C(C)=O)ccc43)c2)CC1)=NOC(C)C	120 to 121 °C
CC(C)(C)c1cc(CCc2ccccc2NC(=O)Nc2ccccc2)cc(C(C)(C)C)c1O	207 °C
